# Assay results published in US8637485B2, “5′,-substituted adenosynes preparation thereof and use as inhibitors of S-adenosylmethionine decarboxylase” (Southern Research Institute, priority 2007, dated 2014).
# Structures can show the parent of a compound that is named as a salt.
# Biological target: T1, hAdoMetDC (Homo sapiens, UniProt P17707)
# T1 construct: the enzyme undergoes autoprocessing to give the α and the β subunits; made in house; host or cells: E. coli JM109 (pQE30-based plasmid)
# T1 sequence (P17707 1-67 limits assumed): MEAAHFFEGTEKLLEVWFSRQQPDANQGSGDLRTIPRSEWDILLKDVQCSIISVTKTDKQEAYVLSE
# T1 sequence (P17707 68-328 limits assumed): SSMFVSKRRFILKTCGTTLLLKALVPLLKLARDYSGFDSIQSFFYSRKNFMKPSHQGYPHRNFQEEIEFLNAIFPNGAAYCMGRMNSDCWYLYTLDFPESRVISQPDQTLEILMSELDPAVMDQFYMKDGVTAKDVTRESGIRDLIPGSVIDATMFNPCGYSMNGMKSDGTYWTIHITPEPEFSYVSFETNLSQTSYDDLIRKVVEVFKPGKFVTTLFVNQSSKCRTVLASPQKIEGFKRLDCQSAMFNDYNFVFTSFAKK
# Experiment: Assay of AdoMetDC activity (release of 14CO2 from S-adenosyl-L-[carboxy-14C]methionine) and determination of inhibitor IC50 values
# Format: biochemical
# Settings: at 100 μM
# Experimental: Assay of AdoMetDC Activity and Determination of Inhibitor IC50 Values
# (§1) AdoMetDC was assayed by measuring the release of ^14CO2 from S-adenosyl-L-[carboxy-^14C]methionine (Amersham Pharmacia Biotech, ˜60 mCi/mmol) (36). […] For determination of the abilities of compounds to inhibit AdoMetDC, the enzyme activity was determined in the presence of no inhibitor and at least 5 concentrations of each potential inhibitor. The IC50 values were determined from curve fitting to plots of the inhibitor concentration versus the % inhibition of AdoMetDC.
# as §1
SMILES,inhibition [% inhibition at 100 μM],inhibition at 100 µM [%]
"CN(CCON)C[C@H]1O[C@@H](n2c(-c3ccccc3)nc3c(N)ncnc32)[C@H](O)[C@@H]1O.CN(CCON)C[C@H]1O[C@@H](n2c(-c3ccccc3)nc3c(N)ncnc32)[C@H](O)[C@@H]1O.O=S(=O)(O)O [Compound 7c, 5′-[(2-Aminooxyethyl)methylamino]-5′-deoxy-8-phenyladenosine sulfate (2:1 salt)]",<5,
"CN(CCCCON)C[C@H]1O[C@@H](n2c(-c3ccccc3)nc3c(N)ncnc32)[C@H](O)[C@@H]1O.O=S(=O)(O)O [Compound 9b, 5′-[(4-Aminooxybutyl)methylamino]-5′-deoxy-8-phenyladenosine sulfate (1.75:1 salt)]",<5,
"Cc1nc2c(N)ncnc2n1[C@@H]1O[C@H](CN(C)CC(N)=O)[C@@H](O)[C@H]1O.O=S(=O)(O)O [Compound 13f, 5′-[(Carboxamidomethyl)methylamino]-5′-deoxy-8-methyladenosine sulfate (1.45:1 salt)]",<5,
"CN(CCCN)C[C@H]1O[C@@H](n2c(-c3ccccc3)nc3c(N)ncnc32)[C@H](O)[C@@H]1O.O=S(=O)(O)O [Compound 14b, 5′-[(3-Aminopropyl)methylamino]-5′-deoxy-8-phenyladenosine sulfate (2.2:1 salt)]",<5,
"CN(CCN)C[C@H]1O[C@@H](n2cnc3c(N)ncnc32)[C@H](O)[C@@H]1O [Compound 14e, 5′-[(2-Aminoethyl)methylamino]-5′-deoxyadenosine]",,< 5
"CNCCCNC[C@H]1O[C@@H](n2c(NC)nc3c(N)ncnc32)[C@H](O)[C@@H]1O.O=S(=O)(O)O [Compound 15a, 5′-deoxy-8-(methylamino)-5′(3-methylaminopropylamino)adenosine sulfate (2.4:1 salt)]",<5,
"CNCCCNC[C@H]1O[C@@H](n2c(-c3ccccc3)nc3c(N)ncnc32)[C@H](O)[C@@H]1O.O=S(=O)(O)O [Compound 15b, 5′-deoxy-5′-(3-methylaminopropylamino)-8-phenyladenosine sulfate (1.7:1 salt)]",<5,
"CNCCNC[C@H]1O[C@@H](n2cnc3c(N)ncnc32)[C@H](O)[C@@H]1O [Compound 15c, 5′-deoxy-5′-(2-methylaminoethylamino)adenosine]",,< 5
"CNCCNC[C@H]1O[C@@H](n2c(C)nc3c(N)ncnc32)[C@H](O)[C@@H]1O [Compound 15d, 5′-deoxy-8-methyl-5′-(2-methylaminoethylamino)adenosine]",,< 5
"CN(CCNC(=N)N)C[C@H]1O[C@@H](n2cnc3c(N)ncnc32)[C@H](O)[C@@H]1O [Compound 18a, 5′-Deoxy 5′-[(2-guanidinoethyl)methylamino]adenosine]",,< 5

# Same assay, conditions: at least 5 concentrations; curve fit of inhibitor concentration versus % inhibition of hAdoMetDC
row,SMILES,IC50 [µM]
1,"CNc1nc2c(N)ncnc2n1[C@@H]1O[C@H](CN(C)CCON)[C@@H](O)[C@H]1O [Compound 7b, 5′-[(2-Aminooxyethyl)methylamino]-5′-deoxy-8-(methylamino)adenosine sulfate (2.1:1 salt)]",0.086
2,"CNc1nc2c(N)ncnc2n1[C@@H]1O[C@H](CN(C)CCCCON)[C@@H](O)[C@H]1O [Compound 9a, 5′-[(4-Aminooxybutyl)methylamino]-5′-deoxy-8-(methylamino)adenosine sulfate (0.4:1 salt)]",0.049
3,"CN(CCCCON)C[C@H]1O[C@@H](n2c(=O)[nH]c3c(N)ncnc32)[C@H](O)[C@@H]1O [Compound 9c, 5′-[(4-Aminooxybutyl)methylamino]-5′-deoxy-8-oxoadenosine sulfate (1.9:1 salt)]",0.011
4,"Cc1nc2c(N)ncnc2n1[C@@H]1O[C@H](CN(C)CCCCON)[C@@H](O)[C@H]1O [Compound 9d, 5′-[(4-Aminooxybutyl)methylamino]-5′-deoxy-8-methyladenosine sulfate (1.9:1 salt)]",0.005
5,"CN(CCCCON)C[C@H]1O[C@@H](n2cnc3c(N)ncnc32)[C@H](O)[C@@H]1O [Compound 9f, 5′-[(4-Aminooxybutyl)methylamino]-5′-deoxyadenosine sulfate (2:1 salt)]",0.018
6,"CCc1nc2c(N)ncnc2n1[C@@H]1O[C@H](CN(C)CCC(N)=O)[C@@H](O)[C@H]1O [Compound 13e, 5′-[(2-Carboxamidoethyl)methyamino]-5′-deoxy-8-ethyladenosine sulfate (1.1:1 salt)]",4
7,"CN(CCC(N)=O)C[C@H]1O[C@@H](n2cnc3c(N)ncnc32)[C@H](O)[C@@H]1O [Compound 13j, 5′-[(2-Carboxamidoethyl)methylamino]-5′-deoxyadenosine sulfate (1.9:1 salt)]",7
8,"Cc1nc2c(N)ncnc2n1[C@@H]1O[C@H](CN(C)CCC(=O)NN)[C@@H](O)[C@H]1O [Compound 13k, 5′-Deoxy-5′-[(2-hydrazinocarbonylethyl)methylamino]-8-methyladenosine sulfate (2:1 salt)]",0.17
9,"CN(CCC(=O)NN)C[C@H]1O[C@@H](n2cnc3c(N)ncnc32)[C@H](O)[C@@H]1O [Compound 13l, 5′-Deoxy-5′-[(2-hydrazinocarbonylethyl)methylamino]-adenosine sulfate (2:1 salt)]",1.5
10,"Cc1nc2c(N)ncnc2n1[C@@H]1O[C@H](CN(C)CC(=O)NN)[C@@H](O)[C@H]1O [Compound 13m, 5′-Deoxy-5′-[(hydrazinocarbonylmethyl)methylamino]-8-methyladenosine]",31
11,"CNc1nc2c(N)ncnc2n1[C@@H]1O[C@H](CN(C)CCCN)[C@@H](O)[C@H]1O [Compound 14a, 5′-[(3-Aminopropyl)methylamino]-5′-deoxy-8-(methylamino)adenosine sulfate (2.4:1 salt)]",440
12,"CN(CCCN)C[C@H]1O[C@@H](n2cnc3c(N)ncnc32)[C@H](O)[C@@H]1O [Compound 14d, 5′-[(3-Aminopropyl)methylamino]-5′-deoxyadenosine sulfate (2:1 salt)]",500
13,"Cc1nc2c(N)ncnc2n1[C@@H]1O[C@H](CN(C)CCN)[C@@H](O)[C@H]1O [Compound 14f, 5′-[(2-Aminoethyl)methylamino]-5′-deoxy-8-methyladenosine]",88
14,"CCc1nc2c(N)ncnc2n1[C@@H]1O[C@H](CN(C)CCCN)[C@@H](O)[C@H]1O [Compound 17d, 5′-[(3-Aminopropyl)methylamino]-5′-deoxy-8-ethyladenosine sulfate (2.5:1 salt)]",420
15,"CN(CCC(=N)NO)C[C@H]1O[C@@H](n2cnc3c(N)ncnc32)[C@H](O)[C@@H]1O [Compound 18c, 5′-Deoxy-5′-[(2-hydroxyamidinoethyl)methylamino]adenosine]",157
16,"CN(C)C[C@H]1O[C@@H](n2cnc3c(N)ncnc32)[C@H](O)[C@@H]1O [Compound 19b, 5′-Deoxy-5′-(N,N-dimethylamino)adenosine]",9

# Same assay, conditions: versus 8-unsubstituted parent compound
row,SMILES,reduction in the IC50 value when an 8-methyl substituent was added to the adenine ring [fold]
1,"Cc1nc2c(N)ncnc2n1[C@@H]1O[C@H](CN(C)CCCCON)[C@@H](O)[C@H]1O [Compound 9d, 5′-[(4-Aminooxybutyl)methylamino]-5′-deoxy-8-methyladenosine sulfate (1.9:1 salt)]",3.4

# Same assay, conditions: versus un-substituted parent compound
row,SMILES,increase in potency when an adenine 8-methyl substituent was added [fold]
1,"Cc1nc2c(N)ncnc2n1[C@@H]1O[C@H](CN(C)CCON)[C@@H](O)[C@H]1O [Compound 7a, 5′-[(2-Aminooxyethyl)methylamino]-5′-deoxy-8-methyladenosine sulfate (2.2:1 salt)]",8

# Biological target: T2, AdoMetDC (Homo sapiens, UniProt P17707)
# T2 sequence (P17707 1-334): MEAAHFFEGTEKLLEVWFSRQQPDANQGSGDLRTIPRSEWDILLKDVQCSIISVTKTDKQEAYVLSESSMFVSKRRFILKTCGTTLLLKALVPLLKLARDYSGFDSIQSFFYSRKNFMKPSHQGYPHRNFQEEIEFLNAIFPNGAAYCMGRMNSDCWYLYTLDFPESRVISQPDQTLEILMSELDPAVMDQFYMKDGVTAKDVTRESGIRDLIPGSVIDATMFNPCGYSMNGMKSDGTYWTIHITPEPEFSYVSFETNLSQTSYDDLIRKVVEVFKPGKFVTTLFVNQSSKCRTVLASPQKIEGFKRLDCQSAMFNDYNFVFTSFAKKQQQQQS
# Experiment: not given
# Settings: previously reported; cited from earlier work
row,SMILES,Ki
1,"C[S+](C)C[C@H]1O[C@@H](n2cnc3c(N)ncnc32)[C@H](O)[C@@H]1O [Compound 21d, 5′-Deoxy-5′-dimethylsulfonioadenosine chloride]",in the μM range
